Experimental data as given in patent US12655072B2, “Formulation system for compositions for enhancing nitrogen stabilizers” (Verdesian Life Sciences U.S., LLC, priority 2020, dated 2026).

Columns and labels:
[1] = test system: corn hybrid AG 8088 VT PRO; experiment: Field study, no-till rainfed corn: harvest, dry plant mass, N content; format: in vivo; details: 135 kg/ha of N
Experimental: A field study was carried out of an area under no-till system that was cultivated with rainfed corn (i.e., without irrigation). The corn cultured was a corn hybrid AG 8088 VT PRO (High yield) with a Standak Top of 100 mL/ha and a plant density of 77,000 plants/ha. The following three formulations were applied at three different rates ([…]) to a field: • Trident Formulation (10-10-10; % polymer-% DCD-% NBPT) • Trident V Formulation (5-5-15; % polymer-% DCD-% NBPT) • Trident N Formulation (5-20-5; % polymer-% DCD-% NBPT)
As a control, plants were only treated with the nitrogen fertilizer (e.g., UAN with 30%-45% N) or were left untreated.
The nitrogen fertilizer was applied with 135 kg/ha of N, which corresponds to a dose of 75N/bu for 10.8 ton/ha of maize. In addition a typical herbicide, fungicide and insecticide program was adopted to remove all study variability due to weeds, diseases or insects throughout the study period;
(§1) The activity of nitrate reductase enzyme at V2-V3 and flowering (first fully developed leaf, three plants per plot) was measured. In addition, soil collection was performed for the determination of N—NO3 and N—NH4 up to 30 days after the application of the cover. This methodology was adapted by Cataldo et al (1975) and Kemper; Zewers (1986). Soil Fertility Center (CEFERT). Growth analysis was performed on dry plant mass every 30 days. Harvesting was performed at physiological maturity. The plants of the three central lines of each plot was harvested excluding 1.0 meter at each end. The rows were measured and the number of plants and ears per row harvested were counted. After harvesting, manual threshing was performed and the 100 grain mass was determined as well as the yield of the crop. Harvest results were estimated for kg/ha and bu/acre.

soil = experiment: Field study: soil collection for determination of N-NO3 and N-NH4; format: in vivo
Experimental: as §1, with “N-NO3” for “N—NO3”, “N-NH4” for “N—NH4”, “([…]).” for “(CEFERT).”

nitrate reductase enzyme = experiment: Field study: activity of nitrate reductase enzyme in the leaves; format: in vivo, corn
Experimental: as §1, with “N-NO3” for “N—NO3”, “N-NH4” for “N—NH4”, “([…]).” for “(CEFERT).”

[2] = cited from earlier work
[3] = first collection within 30 days
[4] = second collection within 30 days

| Compound | MSCaule (production of dry mass of corn plants: corn plant stems) [1] | MSEspiga [1] | MSFolhas (production of dry mass of corn plants: leaves) [1] | MSTotal (production of total dry mass of corn plants) [1] | N Folha (leaf nitrogen content) [1] | N Grão [1] | grains of corn on the corn ear (FIG. 3) ([1]; compared to untreated) | 1 NH4 (NH4 values in the soil) (soil; [3]) | 1 NO3 (NO3 values in the soil) (soil; [3]) | 2 NH4 (NH4 values in the soil) (soil; [4]) | 2 NO3 (NO3 values in the soil) (soil; [4]) | 1 ANR (activity of the enzyme nitrate reductase in the leaves) (nitrate reductase enzyme; first measurement (measured at V2-V3 and flowering)) | 2 ANR (activity of the enzyme nitrate reductase in the leaves) (nitrate reductase enzyme; second measurement (measured at V2-V3 and flowering)) | solubility in water [2] |
| --- | --- | --- | --- | --- | --- | --- | --- | --- | --- | --- | --- | --- | --- | --- |
| NC(N)=O [Urea N, urea] | 148.04 g plant−1 | 191.75 g plant−1 | 80.28 g plant−1 | 420.06 g plant−1 | 2.24 dag kg−1 | 115.04 kg ha−1 | exhibited more grains of corn compared to ears that were untreated | 31.97 mg/kg | 34.16 mg/kg | 25.93 mg/kg | 27.07 mg/kg | 137.51 | 74.82 | – |
| N#CN=C(N)N [dicyandiamide] | – | – | – | – | – | – | – | – | – | – | – | – | – | about 41 g/l |
